Results published in patent US20260308128A1, “BETA-ELEMENE DERIVATIVE CONTAINING PHOTOAFFINITY GROUP DIAZIRINE, AND PREPARATION METHOD AND USE THEREOF AS PHOTOAFFINITY MOLECULAR PROBE” (HANGZHOU NORMAL UNIVERSITY, priority 2022, published 2026).
Like-named read-outs stand apart in the source and are kept apart here.

Key:
[1] = tested on: A549 human non-small cell lung cancer cells; assay: Tumor cell proliferation inhibition (CCK-8), A549; assay type: cell-based; details: for IC50: Homo sapiens, read-out: IC50 A549; for IC50 times lower than that of β-elemene: human A549 lung cancer cells, versus β-elemene
Description: (§1) Human liver cancer cell Huh1, human lung cancer cell A549, and human brain glioma cell U87-MG.
(§2) • (1) A cell laboratory was routinely disinfected and a clean bench was subjected to ultraviolet radiation for more than 30 min. • (2) A culture solution (DMEM) and 0.25% trypsin were preheated in a constant-temperature water bath at 37° C. for 20 min, and dimethyl sulfoxide (DMSO) was refrigerated in a refrigerator at 4° C. for 30 min. • (3) A cryopreserved tube was taken out of a liquid nitrogen storage tank, immediately placed in a 37° C. water bath and shaken rapidly until s cryopreserved liquid was completely thawed. • (4) A cell suspension was transferred into a centrifuge tube, the culture solution was slowly added thereto, and the centrifuge tube was transferred into a centrifuge for centrifugation (120×g, 5 min). • (5) A cell concentration was adjusted with the culture solution, and resulting adjusted cells were shaken well, and placed in a 37° C., 5% CO2 incubator for culture. • (6) After the cells had attached for 24 h, the culture solution thereof was changed. When a cell density reached 80% to 90%, the cells were digested with trypsin and then subcultured.
(§3) • (1) A A549 cell suspension was adjusted to 5×10^4 cells/mL using a DMEM culture medium. […] The cells were cultured in the incubator for 1 h and an absorbance at 450 nm was measured using a THERMO FISHER Multiskan FC microplate reader. • (5) IBM SPSS Statistics 22.0 software was used to plot an S-shaped dose-survival curve using a non-linear regression model, and a survival rate and an inhibition rate were calculated using the following formulas:
(§4) [formula] [formula] • As: absorbance of the experimental well (culture medium containing cells, CCK-8, and the drug to be tested) • Ac: absorbance of the control well (culture medium containing cells, CCK-8, and no drug to be tested) • Ab: absorbance of the blank wells (culture medium without cells and drug to be tested, CCK-8)
(§5) According to the above experimental method, CCK-8 was used to determine the proliferation inhibitory effects of the isolated and purified β-elemene monomer, elemene photoaffinity probe and control compounds on three human cancer cells, namely A549 human non-small cell lung cancer cells, U87-MG human malignant glioma cells, and Huh1 human liver cancer cells.

[2] = tested on: U87-MG human malignant glioma cells; assay: Tumor cell proliferation inhibition (CCK-8), U87-MG; assay type: cell-based; details: for IC50: Homo sapiens, U-87 MG, 48 h, read-out: IC50 U87; for IC50 times lower than that of β-elemene: human U87-MG malignant glioma cells, versus β-elemene
Description: as §1, §2, §3, §4, §5

[3] = tested on: Huh1 human liver cancer cells; assay: Tumor cell proliferation inhibition (CCK-8), Huh1; assay type: cell-based; details: for IC50: Homo sapiens, read-out: IC50 Huh1; for IC50 times lower than that of β-elemene: human Huh1 liver cancer cells, versus β-elemene
Description: as §1, §2, §3, §4, §5

Huh1 liver cancer cells = assay: Pre-targeted imaging using molecular probe in living cells (365 nm photo-crosslinking, N3-TAMRA click, confocal microscopy); assay type: cell-based, human
Description: In order to determine whether the molecular probe could enter the cell and explore the binding site of the targeted biomacromolecule thereof, the experiment was conducted as follows.
DMEM culture medium, PBS, 4% paraformaldehyde tissue cell fixative, Triton X-100, 5% BSA blocking solution, DAPI staining solution, Cu2SO4, sodium ascorbate, THPTA, N3-TAMRA
• (1) 10^5 Huh1 liver cancer cells were inoculated into glass-bottomed culture dishes and cultured in a 37° C., 5% CO2 incubator until the cells adhered to wall. • (2) DMEM culture medias containing different drug concentrations were added to the culture dishes and incubated overnight in the 37° C., 5% CO2 incubator. • (3) After removing the drug-containing culture mediums, resulting cells were washed with pre-cooled PBS ([…]) for 3 min, placed on ice, and irradiated at 365 nm for 15 min. • (4) Resulting irradiated cells were treated with 1 mL of 4% paraformaldehyde tissue cell fixative for 15 min, the paraformaldehyde tissue cell fixative was removed, and resulting cells were washed with pre-cooled PBS. • (5) Resulting washed cells were permeabilized with 500 μL of 0.1% Triton X-100 in PBS for 10 min, then blocked with 1 mL of 5% BSA blocking solution for 30 min, the blocking solution was removed, and resulting cells were washed with pre-cooled PBS (3×1 mL). • (6) 200 μL of freshly prepared Click reaction solution (20 μM N3-TAMRA, 400 μM Cu2SO4, 400 μM THPTA, 2 mM sodium ascorbate) was added to washed cells obtained in step • (5), incubated under shaking at room temperature for 2 h, the reaction solution was removed, and resulting cells were washed with pre-cooled PBS (3×1 mL) for 3 min. • (7) 200 μL of DAPI staining solution was added to washed cells obtained in step (6) and stained for 6 min, the staining solution was removed, and resulting cells were washed with pre-cooled PBS (3×1 mL) for 3 min, and then imaged with a laser scanning confocal microscope.
According to the above experimental method, the cell images of the β-elemene photoaffinity probe (Compound 2) and a control Compound 6 and β-elemene were measured.

SMILES | IC50 ([1]; A549 cells, 48 h, CCK-8) [µM] | IC50 times lower than that of β-elemene [1] | IC50 ([2]; U87-MG cells, CCK-8) [µM] | IC50 ([3]; HuH-1, Huh1 cells, 48 h, CCK-8) [µM] | IC50 times lower than that of β-elemene [3] | intracellular Rhodamine Red fluorescence, with UV irradiation (Huh1 liver cancer cells; 20 μM, with UV irradiation (365 nm, 15 min)) | intracellular Rhodamine Red fluorescence, without UV irradiation (Huh1 liver cancer cells; 20 μM, without UV irradiation) | binding of the probe to the target (Huh1 liver cancer cells; conclusion from competition imaging) | IC50 times lower than that of β-elemene [2] | IC50 ([1]; A549, 48 h) [µM] | IC50 [2] [µM] | IC50 ([3]; HuH-1, 48 h) [µM] | intensity of intracellular Rhodamine Red fluorescence of Compound 2 in presence of competitor (Huh1 liver cancer cells; competitor β-elemene (50 μM) with Compound 2 (20 μM), UV irradiation) | competitive binding (Huh1 liver cancer cells; versus Compound 2, conclusion from competition imaging)
C#CCCC(=O)NCCOCCOCCC(=O)N[C@H](CCC1(C)N=N1)C(=O)N1CCN(CC(=C)[C@@H]2CC[C@@](C)(C=C)[C@H](C(=C)C)C2)CC1 [Compound 1] | 29.3 ± 1.63 | more than 5 times | 38.7 ± 1.91 | 18.7 ± 1.54 | more than 10 times |  |  |  |  |  |  |  |  | 
C#CCCC(=O)NCCOCCOCCC(=O)N[C@H](CCC1(C)N=N1)C(=O)NCCN1CCN(CC(=C)[C@@H]2CC[C@@](C)(C=C)[C@H](C(=C)C)C2)CC1 [Compound 2] | 37.8 ± 3.36 | more than 5 times | 25.5 ± 4.79 | 20.12 ± 0.16 | more than 10 times | strong intracellular Rhodamine Red fluorescence | no intracellular Rhodamine Red fluorescence | non-covalent |  |  |  |  |  | 
C#CCCC(=O)NCCOCCOCCC(=O)N[C@H](CCC1(C)N=N1)C(=O)NCCOCCOCCN1CCN(CC(=C)[C@@H]2CC[C@@](C)(C=C)[C@H](C(=C)C)C2)CC1 [Compound 3] | 44.6 ± 7.68 |  | 19.3 ± 3.3 | 22.8 ± 3.07 | more than 10 times |  |  |  | more than 10 times |  |  |  |  | 
C#CCCC(=O)NCCOCCOCCC(=O)N[C@H](CCC1(C)N=N1)C(=O)N1CC2CN(CC(=C)[C@@H]3CC[C@@](C)(C=C)[C@H](C(=C)C)C3)CC2C1 (stereo partly drawn) [Compound 4] | 48.4 ± 1.7 |  | 47.2 ± 2.21 | 54.5 ± 3.26 |  |  |  |  |  |  |  |  |  | 
C#CCCC(=O)NCCOCCOCCC(=O)N[C@@H](CCC1(C)N=N1)C(=O)NCCOCCOCCN1CC2CN(CC(=C)[C@@H]3CC[C@@](C)(C=C)[C@H](C(=C)C)C3)CC2C1 (stereo partly drawn) [Compound 5] |  | more than 5 times |  |  | more than 10 times |  |  |  | more than 10 times | 28.4 ± 3.36 | 14.1 ± 1.72 | 17.1 ± 0.8 |  | 
C=C[C@]1(C)CC[C@@H](C(=C)CN2CC3CN(C)CC3C2)C[C@H]1C(=C)C (stereo partly drawn) [Compound 7] |  |  |  |  | more than 10 times |  |  |  |  | 43.4 ± 2.14 | 23.3 ± 0.84 | 24.3 ± 4.02 |  | 
C=C[C@]1(C)CC[C@@H](C(=C)C)C[C@H]1C(=C)C [β-elemene, reference compound] | 213 ± 5.29 |  | 218 ± 9.58 | 306 ± 31.7 |  |  |  |  |  |  |  |  | greatly weakened | can competitively bind to Compound 2
